The source of these data is ChEMBL document CHEMBL4673240, “Euphnerins A and B, Diterpenoids with a 5/6/6 Rearranged Spirocyclic Carbon Skeleton from the Stems of Euphorbia neriifolia” (J Nat Prod, 2020).

The nature of the experiment: Inhibition of LPS-induced NO production in mouse BV-2 cells. Type of experiment: functional, cell-based.
Take `C=C[C@@]1(C)CC[C@]2(C)C(=O)[C@@]3(CC[C@H]2C1)[C@H](O)CCC3(C)C`: the IC50 was over 30 µM.
To `CSC(=N)N` belongs 2 µM; to `C=C[C@@]1(C)CC[C@]2(C)C(=O)[C@@]3(CC[C@H]2C1)[C@H](O)C[C@@H](O)C3(C)C`, 22.4 µM.
